Laboratory results taken from patent publication US9999859B2, “Immobilized multi-layer artificial membrane for permeability measurements (PAMPA)” (CORNING INCORPORATED, priority 2005, dated 2018).
Where two headings read alike, the source gives them in different places.

Key:
[1] = PAMPA permeability with subject invention membrane; type: in vitro ADME; settings: for Papp at 5 h: PAMPA; for measured permeability with 10% methanol, 90% PBS as working buffer: 90% PBS versus PBS, FIG. 8
Description: FIGS. 5-9 present various data relating to the subject invention. […] Then the filter plate 34 was coupled with the receiver plate 42 and the assembly was incubated in a humidity chamber without agitation at room temperature (except for a data set in FIG. 9, where the assembly was incubated in a humidity chamber without agitation at 37° C.) for 5 hours. At the end of the incubation, the plates 34, 42 were separated and 150 μL solution from each well 36, 44 of both the filter plate 34 and the receiver plate 42 was transferred to UV-transparent plates. The final concentrations of compounds in both donor wells and acceptor wells were analyzed by UV-plate reader. […] Where: • C0=initial compound concentration in donor well (mM) • CD (t)=compound concentration in donor well at time t. (mM) • CA (t)=compound concentration in acceptor well at time t.

[2] = cited from earlier work
[3] = human oral absorption; cited from earlier work
[4] = PBS pH 7.4, room temperature, no agitation, 5 hours, read-out: Pe Subject Invention Membrane Results
[5] = prior art PAMPA membrane, PBS pH 7.4, room temperature, no agitation

SMILES	Papp at 5 h [1, 4]	Human Absorption [3]	Pe Prior Art Results [2, 5]	further results
O=C(O)Cc1ccccc1Nc1c(Cl)cccc1Cl [diclofenac]	6.3 ×10⁻⁶ cm/s			
Nc1nc2c(ncn2COCCO)c(=O)[nH]1 [acyclovir]	0.1 ×10⁻⁶ cm/s			
CC(C)(C)c1ccc(C(O)CCCN2CCC(C(O)(c3ccccc3)c3ccccc3)CC2)cc1 (stereo not drawn) [terfenadine]				measured permeability with 10% methanol, 90% PBS as working buffer [1]: can be measured
CNC(=C[N+](=O)[O-])NCCSCc1ccc(CN(C)C)o1 [ranitidine]		61%		Pe Subject Invention Membrane Results ([1]; PBS pH 7.4, room temperature, no agitation, 5 hours): 0.45 10^−6 cm/s
Cn1c(=O)c2[nH]cnc2n(C)c1=O [theophyline]				Pe Prior Art Results ([2]; PAMPA, pH 7.4): 0.04 10^−6 cm/s
N=C(N)NC(=O)c1nc(Cl)c(N)nc1N [amiloride]	0.08 ×10⁻⁶ cm/s	50%	0.00 10^−6 cm/s	
CCCC(=O)Nc1ccc(OCC(O)CNC(C)C)c(C(C)=O)c1 (stereo not drawn) [acebutolol]	0.21 ×10⁻⁶ cm/s	50%		
NC(=O)N1c2ccccc2C=Cc2ccccc21 [carbamazepine]	7.79 ×10⁻⁶ cm/s	100%	6.4 10^−6 cm/s	
Cc1cc(=O)n(-c2ccccc2)n1C [antipyrine]			0.74 10^−6 cm/s	PAMPA permeability values found by the prior art ([2]; PAMPA): low
NC(N)=Nc1nc(CSCCC(N)=NS(N)(=O)=O)cs1 [famotidine]	0.04 ×10⁻⁶ cm/s	40%	0.06 10^−6 cm/s	
Cn1c(=O)c2c(ncn2C)n(C)c1=O [caffeine]				PAMPA permeability values found by the prior art ([2]; in words): low
Clc1cccc(Cl)c1N=C1NCCN1 [clonidine]	4.92 ×10⁻⁶ cm/s	100%	1.5 10^−6 cm/s	
Clc1ccc(COC(Cn2ccnc2)c2ccc(Cl)cc2Cl)c(Cl)c1 (stereo not drawn) [miconazole]				measured permeability with 10% methanol, 90% PBS as working buffer [1]: can be measured
CC(=O)CC(c1ccccc1)c1c(O)c2ccccc2oc1=O (stereo not drawn) [warfarin]				Papp at 5 h ([1]; pH 7.4): 5.28 ×10⁻⁶ cm/s

Second part, led by results:

Papp at 5 h [1, 4]	SMILES	Human Absorption [3]	Pe Prior Art Results [2, 5]	further results
2.64 ×10⁻⁶ cm/s	CC(C)NCC(O)COc1cccc2[nH]ccc12 (stereo not drawn) [pindolol]			
4.29 ×10⁻⁶ cm/s	COCCc1ccc(OCC(O)CNC(C)C)cc1 (stereo not drawn) [metoprolol]			PAMPA permeability values found by the prior art ([2]; in words): low
6.24 ×10⁻⁶ cm/s	COc1ccc2c(c1)c(CC(=O)O)c(C)n2C(=O)c1ccc(Cl)cc1 [indomethacin]			
0.46 ×10⁻⁶ cm/s	CC(C)(C)NCC(O)c1cc(O)cc(O)c1 (stereo not drawn) [terbutaline]	60%	0.05 10^−6 cm/s	
0.18 ×10⁻⁶ cm/s	CCN1CCCC1CNC(=O)c1cc(S(N)(=O)=O)ccc1OC (stereo not drawn) [sulpiride]			
0.09 ×10⁻⁶ cm/s	NS(=O)(=O)c1cc2c(cc1Cl)NCNS2(=O)=O [hydrochlorothiazide]		0.02 10^−6 cm/s	
4.45 ×10⁻⁶ cm/s	CC(C)(C)NC[C@H](O)COc1nsnc1N1CCOCC1 [timolol]		0.61 10^−6 cm/s	PAMPA permeability values found by the prior art ([2]; in words): low
4.02 ×10⁻⁶ cm/s	CN1C(C(=O)Nc2ccccn2)=C(O)c2ccccc2S1(=O)=O [piroxicam]	100%	2.64 10^−6 cm/s	
0.16 ×10⁻⁶ cm/s	O=C(O)c1cc(/N=N/c2ccc(S(=O)(=O)Nc3ccccn3)cc2)ccc1O [sulphasalazine]	13%	0.00 10^−6 cm/s	
5.73 ×10⁻⁶ cm/s	O=C1NC(=O)C(c2ccccc2)(c2ccccc2)N1 [phenytoin]		0.38 10^−6 cm/s	PAMPA permeability values found by the prior art ([2]; in words): low
3.1 ×10⁻⁶ cm/s	CC(C(=O)O)c1cccc(C(=O)c2ccccc2)c1 (stereo not drawn) [ketoprofen]			PAMPA permeability values found by the prior art ([2]; in words): low
0.16 ×10⁻⁶ cm/s	CC(C)(C)NCC(O)COc1cccc2c1CC(O)C(O)C2 (stereo not drawn) [nadolol]	30%	0.28 10^−6 cm/s	
4.39 ×10⁻⁶ cm/s	CC(C)Cc1ccc(C(C)C(=O)O)cc1 (stereo not drawn) [ibuprofen]		2.4 10^−6 cm/s	
